Experimental data taken from the supplement of paper PMC10307832.

What was measured:
Assay in all cases: relative viability (nuclei count vs DMSO), 5 days (fraction); higher = more cells survive
Adavosertib + OSI-027 = compound: C=CCn1c(=O)c2cnc(Nc3ccc(N4CCN(C)CC4)cc3)nc2n1-c1cccc(C(C)(C)O)n1 [Adavosertib] + COc1cccc2cc(-c3nc([C@H]4CC[C@H](C(=O)O)CC4)n4ncnc(N)c34)[nH]c12 [OSI-027] (partner 0.5 µM)
Outline: (§1)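 Nuclei were stained with Hoechst during a one-step fixation (final 0.05% Triton X-100, 1% formaldehyde, 1 ug/ml Hoechst) carried out 5 days after dosing, then counted on 4× images. The cells, lung cancer lines in 1536-well plates, had been dosed by pin tool the day after seeding with one drug alone or a fixed anchor-drug dose plus five library-drug doses (not always all listed) in √10 steps. Relative viability is the nuclei count in treated wells divided by that in vehicle wells, and each value is the median of duplicate plates.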

Nelarabine + Luminespib = compound: COc1nc(N)nc2c1ncn2[C@@H]1O[C@H](CO)[C@@H](O)[C@@H]1O [Nelarabine] + CCNC(=O)c1noc(-c2cc(C(C)C)c(O)cc2O)c1-c1ccc(CN2CCOCC2)cc1 [Luminespib] (partner 0.01 µM)
Outline: as §1

Nelarabine + Lapatinib = compound: COc1nc(N)nc2c1ncn2[C@@H]1O[C@H](CO)[C@@H](O)[C@@H]1O [Nelarabine] + CS(=O)(=O)CCNCc1ccc(-c2ccc3ncnc(Nc4ccc(OCc5cccc(F)c5)c(Cl)c4)c3c2)o1 [Lapatinib] (partner 2 µM)
Outline: as §1

Nelarabine + AZD7762 = compound: COc1nc(N)nc2c1ncn2[C@@H]1O[C@H](CO)[C@@H](O)[C@@H]1O [Nelarabine] + NC(=O)Nc1cc(-c2cccc(F)c2)sc1C(=O)N[C@H]1CCCNC1 [AZD7762] (partner 0.2 µM)
Outline: as §1

Cell Line	relative viability (Adavosertib + OSI-027; first compound 0.01 µM)	relative viability (Adavosertib + OSI-027; first compound 0.03162 µM)	relative viability (Adavosertib + OSI-027; first compound 0.1 µM)	relative viability (Adavosertib + OSI-027; first compound 0.3162 µM)	relative viability (Nelarabine + Luminespib; first compound 0.01 µM)	relative viability (Nelarabine + Luminespib; first compound 0.03162 µM)	relative viability (Nelarabine + Luminespib; first compound 0.1 µM)	relative viability (Nelarabine + Luminespib; first compound 0.3162 µM)	relative viability (Nelarabine + Luminespib; first compound 1 µM)	relative viability (Nelarabine + Lapatinib; first compound 0.01 µM)	relative viability (Nelarabine + Lapatinib; first compound 0.03162 µM)	relative viability (Nelarabine + Lapatinib; first compound 0.1 µM)	relative viability (Nelarabine + Lapatinib; first compound 0.3162 µM)	relative viability (Nelarabine + Lapatinib; first compound 1 µM)	relative viability (Nelarabine + AZD7762; first compound 0.01 µM)	relative viability (Nelarabine + AZD7762; first compound 0.03162 µM)	relative viability (Nelarabine + AZD7762; first compound 0.1 µM)	relative viability (Nelarabine + AZD7762; first compound 0.3162 µM)	relative viability (Nelarabine + AZD7762; first compound 1 µM)
201T	0.667	0.734	0.669	0.666	1.09	1.09	1.03	1.07	1.04	1.05	1.02	0.999	1.09	1.1	0.774	0.547	0.609	0.653	0.612
A549	–	–	–	–	–	–	–	–	–	1.13	1.09	0.926	0.896	0.921	–	–	–	–	–
A-427	0.472	0.411	0.481	0.268	0.96	0.982	0.721	0.964	0.983	1.15	0.973	1.14	1.1	1.11	0.781	0.62	0.599	0.62	0.572
ABC-1	0.411	0.406	0.405	0.419	0.71	0.705	0.535	0.309	0.859	1.44	0.952	1.23	1.1	1.37	–	0.839	0.766	0.845	0.78
BEN	0.293	0.333	0.297	0.273	0.323	0.131	0.371	0.488	0.331	0.905	0.69	0.941	0.684	0.778	0.746	0.683	0.711	0.683	0.674
CAL-12T	0.568	0.711	0.582	0.235	0.32	0.315	0.367	0.699	0.394	0.699	0.743	0.611	0.685	0.688	0.721	0.642	0.685	0.58	0.561
COR-L23	0.858	0.745	0.717	0.349	0.973	0.796	0.576	0.906	0.869	1.39	1.17	1.12	1.02	0.982	–	–	–	–	–
COR-L 105	0.598	0.677	0.558	0.503	0.701	0.822	0.792	0.669	0.904	0.362	0.306	0.374	0.285	0.368	–	–	–	–	–
Calu-6	–	–	–	–	–	–	–	–	–	1.29	1.04	1.08	1.18	1.14	–	–	–	–	–
ChaGo-K-1	0.546	0.633	0.511	0.591	0.821	0.361	0.637	0.659	0.562	–	–	–	–	–	1	0.715	0.871	0.985	0.821
EBC-1	–	–	–	–	–	–	–	–	–	0.177	0.205	0.188	0.215	0.197	–	–	–	–	–
